According to ChEMBL document CHEMBL5465560, “Selectivity Literature for EUbOPEN Chemogenomic Library” (2024):

Experiments:
[1] = biological target: T1, Tyrosine-protein kinase Mer (Homo sapiens) (UniProt Q12866); experiment: Selectivity interaction (Upstate Kinase Profiler service (Millipore)) EUB0000056c MERTK; conditions: at 1 µM
T1 sequence (whole entry): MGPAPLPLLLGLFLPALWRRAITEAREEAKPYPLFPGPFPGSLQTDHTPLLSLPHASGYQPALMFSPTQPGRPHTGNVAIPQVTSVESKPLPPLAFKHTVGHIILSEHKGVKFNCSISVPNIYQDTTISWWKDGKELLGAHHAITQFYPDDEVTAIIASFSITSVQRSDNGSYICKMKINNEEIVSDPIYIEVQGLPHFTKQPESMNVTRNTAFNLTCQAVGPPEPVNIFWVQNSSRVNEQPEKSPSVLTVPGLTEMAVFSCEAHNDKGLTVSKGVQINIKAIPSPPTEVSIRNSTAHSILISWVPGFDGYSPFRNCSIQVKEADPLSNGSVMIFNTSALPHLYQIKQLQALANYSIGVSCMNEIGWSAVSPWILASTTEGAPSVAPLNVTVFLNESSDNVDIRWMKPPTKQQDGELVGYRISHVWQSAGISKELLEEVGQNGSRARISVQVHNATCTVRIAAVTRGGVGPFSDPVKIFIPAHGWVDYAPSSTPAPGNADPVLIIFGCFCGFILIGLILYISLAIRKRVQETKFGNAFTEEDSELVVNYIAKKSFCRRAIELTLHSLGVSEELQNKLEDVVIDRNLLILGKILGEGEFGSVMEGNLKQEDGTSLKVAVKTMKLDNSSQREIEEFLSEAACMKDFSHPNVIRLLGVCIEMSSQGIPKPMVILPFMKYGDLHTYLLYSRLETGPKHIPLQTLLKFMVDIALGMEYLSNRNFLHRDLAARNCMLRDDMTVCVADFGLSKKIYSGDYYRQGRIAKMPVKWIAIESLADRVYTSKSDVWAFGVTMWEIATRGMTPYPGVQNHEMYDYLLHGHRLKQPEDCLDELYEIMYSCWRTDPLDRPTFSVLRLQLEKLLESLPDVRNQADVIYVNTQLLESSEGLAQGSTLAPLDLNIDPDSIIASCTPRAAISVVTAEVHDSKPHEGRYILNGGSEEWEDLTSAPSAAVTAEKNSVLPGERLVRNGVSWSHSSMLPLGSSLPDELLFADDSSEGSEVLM

[2] = biological target: T2, Interleukin-1 receptor-associated kinase 4 (Homo sapiens) (UniProt Q9NWZ3); experiment: Selectivity interaction (KinomeScan (DiscoverX)) EUB0001079a IRAK4; conditions: at 1 µM
T2 sequence (whole entry): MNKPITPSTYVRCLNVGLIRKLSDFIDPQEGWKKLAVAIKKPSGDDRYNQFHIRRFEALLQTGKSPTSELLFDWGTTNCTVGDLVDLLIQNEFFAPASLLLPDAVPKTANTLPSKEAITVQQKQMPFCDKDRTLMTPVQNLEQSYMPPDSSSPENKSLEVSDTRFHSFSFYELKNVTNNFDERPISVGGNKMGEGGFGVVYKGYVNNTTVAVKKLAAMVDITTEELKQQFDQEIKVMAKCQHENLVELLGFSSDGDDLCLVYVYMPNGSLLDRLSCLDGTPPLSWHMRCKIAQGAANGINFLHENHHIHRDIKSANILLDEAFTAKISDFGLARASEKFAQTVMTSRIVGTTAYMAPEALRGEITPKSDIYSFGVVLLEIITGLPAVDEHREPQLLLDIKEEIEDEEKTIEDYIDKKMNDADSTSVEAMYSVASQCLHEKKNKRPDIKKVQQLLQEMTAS

[3] = biological target: Tyrosine-protein kinase FRK (Homo sapiens) (UniProt P42685); experiment: Selectivity interaction (KinomeScan (DiscoverX)) EUB0000618a FRK; conditions: at 10 µM
Chain of Tyrosine-protein kinase FRK (Homo sapiens) (P42685 whole entry): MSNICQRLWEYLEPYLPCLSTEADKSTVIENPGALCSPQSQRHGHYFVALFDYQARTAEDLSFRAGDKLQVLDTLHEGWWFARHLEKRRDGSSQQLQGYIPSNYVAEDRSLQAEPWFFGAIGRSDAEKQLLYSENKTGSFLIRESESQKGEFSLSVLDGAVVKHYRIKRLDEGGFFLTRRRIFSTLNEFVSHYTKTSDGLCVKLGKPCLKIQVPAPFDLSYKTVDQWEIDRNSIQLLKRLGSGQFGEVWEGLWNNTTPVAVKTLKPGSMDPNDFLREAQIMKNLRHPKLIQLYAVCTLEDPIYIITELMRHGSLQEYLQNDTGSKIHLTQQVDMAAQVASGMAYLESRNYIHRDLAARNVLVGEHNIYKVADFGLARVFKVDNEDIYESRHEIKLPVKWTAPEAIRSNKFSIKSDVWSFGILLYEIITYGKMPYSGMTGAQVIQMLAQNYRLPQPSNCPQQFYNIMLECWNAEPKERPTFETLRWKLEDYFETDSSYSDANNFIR

[4] = biological target: T3, Peripheral plasma membrane protein CASK (Homo sapiens) (UniProt O14936); experiment: Selectivity interaction (KinomeScan (DiscoverX)) EUB0001619a CASK; conditions: at 1 µM
T3 sequence (whole entry): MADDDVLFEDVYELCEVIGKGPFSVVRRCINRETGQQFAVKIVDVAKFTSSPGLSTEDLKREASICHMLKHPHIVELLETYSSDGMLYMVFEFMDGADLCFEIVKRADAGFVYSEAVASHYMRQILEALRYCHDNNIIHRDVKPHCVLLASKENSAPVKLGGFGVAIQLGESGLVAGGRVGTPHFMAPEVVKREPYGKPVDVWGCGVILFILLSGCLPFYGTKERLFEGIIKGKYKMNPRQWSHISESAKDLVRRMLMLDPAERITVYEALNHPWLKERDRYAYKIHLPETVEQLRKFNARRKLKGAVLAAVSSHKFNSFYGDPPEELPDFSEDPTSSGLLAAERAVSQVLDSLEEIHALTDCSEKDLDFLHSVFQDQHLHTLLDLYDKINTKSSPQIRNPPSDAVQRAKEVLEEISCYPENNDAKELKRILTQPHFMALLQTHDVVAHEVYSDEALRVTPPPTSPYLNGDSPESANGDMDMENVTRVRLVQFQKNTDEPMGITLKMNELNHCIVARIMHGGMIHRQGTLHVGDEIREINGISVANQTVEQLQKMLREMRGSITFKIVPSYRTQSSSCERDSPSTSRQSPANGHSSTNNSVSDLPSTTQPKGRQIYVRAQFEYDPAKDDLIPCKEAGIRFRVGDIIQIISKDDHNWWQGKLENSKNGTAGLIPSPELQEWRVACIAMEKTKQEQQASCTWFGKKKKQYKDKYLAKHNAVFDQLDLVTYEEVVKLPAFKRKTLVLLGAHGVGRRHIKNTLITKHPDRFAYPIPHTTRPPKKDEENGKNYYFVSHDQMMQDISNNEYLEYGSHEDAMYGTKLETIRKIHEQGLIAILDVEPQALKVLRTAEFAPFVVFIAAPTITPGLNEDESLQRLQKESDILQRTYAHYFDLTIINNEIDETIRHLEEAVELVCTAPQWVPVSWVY

**Q.** Which % of inhibition [1] does the source give for Cc1ccc(-c2ccc3c(ccc4sc5c(c43)NC[C@@H](C)NC5=O)n2)cn1 here?
**A.** 97%

**Q.** Which % of control [2] does the source give for Nc1cnc(N2CCc3cc(S(=O)(=O)Nc4c(F)cc(Cl)cc4F)cc(N4CCCC4=O)c32)nc1 [TP-020n] here?
**A.** 100%

**Q.** For O[C@H]1CC[C@H](Nc2ncc3nc(Nc4c(F)cc(F)cc4F)n([C@H]4CCOC4)c3n2)CC1, which % of control [3] is on record?
**A.** 100%

**Q.** How did the % of control [4] turn out when N#Cc1cccc(-c2c[nH]c3ncnc(N4CCOCC4)c23)c1 was run?
**A.** 66%
